Legend:
[1] = One-electron reduction potential E(1) by pulse radiolysis; type: physicochemical; details: determined by pulse radiolysis
[2] = test system: SKOV3: human ovarian carcinoma cell line; assay: Proliferation IC50 assay, oxic/hypoxic, SKOV3; type: cell-based; details: for IC50: Homo sapiens, SK-OV-3, 4 h exposure under aerobic conditions; for HCR (hypoxic cytotoxicity ratio) SKOV3: IC50(aerobic)/IC10(hypoxic); for HCR SKOV3: IC50(aerobic)/IC50(hypoxic)
[3] = test system: HT29: human colon cancer cell line; assay: Proliferation IC50 assay, oxic/hypoxic, HT29; type: cell-based; details: for IC50: Homo sapiens, HT-29, 4 h exposure under aerobic conditions; for HCR (hypoxic cytotoxicity ratio) HT29: IC50(aerobic)/IC10(hypoxic); for HCR HT29: IC50(aerobic)/IC50(hypoxic)

Structure (SMILES)	E(1): one-electron reduction potential [1] [mV]	IC50 ([2]; Table 3) [nM]	HCR (hypoxic cytotoxicity ratio) SKOV3 ([2]; Table 3)	IC50 ([3]; Table 3) [nM]	HCR (hypoxic cytotoxicity ratio) HT29 ([3]; Table 3)	IC50 ([2]; Table 4) [nM]	HCR SKOV3 ([2]; Table 4)	melting point	IC50 ([3]; Table 4) [nM]	HCR HT29 ([3]; Table 4)
CN(C)CCOc1ccc2[nH]c(C(=O)N3CC(CCl)c4c3cc([N+](=O)[O-])c3c([N+](=O)[O-])cccc43)cc2c1 (stereo not shown) [Compound 2, 1-(Chloromethyl)-3-(5-[2-(dimethylamino)ethoxy]indol-2-carbonyl)-5,6-dinitro-1,2-dihydro-3H-benzo[e]indole]	−467 ± 8	4100	2.9	2800	2.2					
COC(=O)c1ccc2c3c(cc([N+](=O)[O-])c2c1)N(C(=O)c1cc2cc(OCCN(C)C)ccc2[nH]1)CC3CCl (stereo not shown) [Compound 14, Methyl 1-(chloromethyl)-3-{5-[2-(dimethylamino)ethoxy]indol-2-carbonyl}-5-nitro-1,2-dihydro-3H-benzo[e]indole-7-carboxylate]	−429 ± 8	440	1.9	320	1.2					
COc1cc2cc(C(=O)N3CC(CCl)c4c3cc(N)c3cc(S(N)(=O)=O)ccc43)[nH]c2c(OC)c1OC (stereo not shown) [Compound 59, 5-Amino-1-(chloromethyl)-3-(5,6,7-trimethoxyindol-2-carbonyl)-1,2-dihydro-3H-benzo[e]indole-7-sulfonamide]						41	1.3	240 to 245 °C (dec.)	86	1.1
CN(C)CCOc1ccc2[nH]c(C(=O)N3CC(CCl)c4c3cc(N)c3cc(S(N)(=O)=O)ccc43)cc2c1 (stereo not shown) [Compound 60, 5-Amino-1-(chloromethyl)-3-{5-[2-(dimethylamino)ethoxy]indol-2-carbonyl}-1,2-dihydro-3H-benzo[e]indole-7-sulfonamide]						23	1.4	260 to 266 °C (dec.)	35	1.8
CNS(=O)(=O)c1ccc2c3c(cc(N)c2c1)N(C(=O)c1cc2cc(OCCN(C)C)ccc2[nH]1)CC3CCl (stereo not shown) [Compound 61, 5-Amino-1-(chloromethyl)-3-{5-[2-(dimethylamino)ethoxy]indol-2-carbonyl}-N-methyl-1,2-dihydro-3H-benzo[e]indole-7-sulfonamide]						20	1.8	260 to 265 °C (dec.)	24	1.2
CN(C)CCOc1ccc2[nH]c(C(=O)N3CC(S(=O)(=O)NCCO)c4c3cc(N)c3c(CCl)cccc43)cc2c1 (stereo not shown) [Compound 62, 5-Amino-6-(chloromethyl)-3-{5-[2-(dimethylamino)ethoxy]indol-2-carbonyl}-N-(2-hydroxyethyl)-1,2-dihydro-3H-benzo[e]indole-1-sulfonamide]						34	1.1	225 to 230 °C	94	1.0
COc1cc2cc(C(=O)N3CC(CCl)c4c3cc(N)c3ccc(S(C)(=O)=O)cc43)[nH]c2c(OC)c1OC (stereo not shown) [Compound 63, 5-Amino-1-(chloromethyl)-8-(methylsulfonyl)-3-(5,6,7-trimethoxyindol-2-carbonyl)-1,2-dihydro-3H-benzo[e]indole]						19	1.4	165 to 170 °C	25	1.0
CN(C)CCOc1ccc2[nH]c(C(=O)N3CC(CCl)c4c3cc(N)c3ccc(S(C)(=O)=O)cc43)cc2c1 (stereo not shown) [Compound 64, 5-Amino-1-(chloromethyl)-3-{5-[2-(dimethylamino)ethoxy]indol-2-carbonyl}-8-(methylsulfonyl)-1,2-dihydro-3H-benzo[e]indole]						18	1.5	235 to 240 °C	29	1.9

Source: patent publication US7718688B2, “Nitrobenzindoles and their use in cancer therapy” (Auckland Uniservices Limited, priority 2004, dated 2010)
